From patent US20150141437A1, “AMIDOPHENOXYPROPANOLAMINES” (MEDIZINISCHE UNIVERSITÄT WIEN, priority 2012, published 2015) come the findings set out here.

Common to all, as to assay type: cell-based
The subject of test [1] is P. falciparum 3D7 (CQ-sensitive). The test is described as follows: HRP2-based ELISA growth inhibition, 3D7 strain. The following applies: Plasmodium falciparum, unmarked values: HRP II ELISA, 72 h. An excerpt: (§1) Highly sensitive HRP2-based ELISA and [^3H]-hypoxanthine incorporation assay were used as markers for inhibition of parasite growth as previously described (12, 14). A solvent control and a chloroquine (CQ) control were included in the HRP2-based ELISA. CQ, lumefantrine and artesunate were included as controls in the [^3H]-hypoxanthine assay series.
(§2) The assay protocol of the HRP2-based ELISA is described in more detail in the following paragraphs.
(§3) The P. falciparum clones were maintained in continuous culture as described previously (10). Briefly, 3D7 (CQ-sensitive), NF54, and K1 (CQ-resistant) P. falciparum clones were obtained from MR4/American Type Culture Collection, Manassas, Va., USA under the accession numbers MR4-102 (3D7), MRA-1000 (NF54), and MR4-159 (K1). P. falciparum cultures were maintained in 25 cm^2 flasks. Parasites were cultured in RPMI 1640 (Sigma Aldrich, Austria) medium containing 10% human serum at a hematocrit of 5% (blood group 0 negative) at 37° C. under an atmosphere of 5% CO2, 5% O2 and 90% N2. The medium was changed every 24 to 48 hours. The culture was diluted and fresh erythrocytes were added whenever the parasite density reached >1%.
(§4) Stock solutions of compounds of formula I were prepared in DMSO (10 mg/mL). Stock concentrations of chloroquine and lumefantrine always remained 1 mg/mL and were prepared in 70% ethanol. Coating of culture plates with compounds of formula I and controls: 96 wells culture plates were coated as described previously (11). Working standards were prepared by diluting the stock solutions in RPMI1640 to obtain the desired final concentrations. Serial three-fold dilutions (seven concentrations and one drug-free control well) of the drugs (25 μL/well) were dispensed in duplicate into standard 96-well micro culture plates. Chloroquine was included as a reference drug in all experiments.
(§5) After reaching a parasitemia of 5% or higher, 5 mL of cell medium mixture were centrifuged at 700 g for 5 minutes at room temperature (RT). Packed red cells were resuspended in 3 mL of 5% D-sorbitol (Sigma Aldrich, Austria) in water at RT and immediately centrifuged again at 700 g for 5 minutes at RT followed by three washes with 3 mL of RPMI1640 medium. […].
(§6) Samples were diluted with RPMI1640 medium containing 0.5% Albumax II (GIBCO, Invitrogen, Vienna, Austria) by adding uninfected red blood cells to 1.5% hematocrit and 0.05% parasitemia. 150 μL of this cell medium mixture was then added to each well of 96-well plates precoated with test compounds and incubated at 37° C. for 72 hours in a gas mixture containing 5% CO2, 5% O2, and 90% N2. After 72 hours the plates were frozen at −20° C. until the histidine rich protein II assay (23).
(§7) A highly sensitive HRPII ELISA was used based on two commercially available monoclonal antibodies (Immunology Consultants Laboratory, Inc., Newberg, Oreg.) directed against P. falciparum-specific HRPII: MPFM-55A, an immunoglobulin M antibody served as the primary capture antibody and HRP-conjugated MPFG-55P (Immunology Consultants Laboratory, Inc., Newberg, Oreg.) as secondary antibody. The ELISA was employed to assess growth inhibition as a measure of drug susceptibility as previously described. Optical density was measured at 450 nm using a standard ELISA plate reader (12-13).
(§8) Hyperbolic concentration response curves were fitted to the data points by nonlinear least squares using the solver add-in of the Excel software.
(§9) Indicated in TABLE 2 are the IC50 [μM] values for growth inhibition of the 3D7 (NF54) and K1 strains of P. falciparum for the compounds of formula I indicated with their formula numbers in TABLE 2. Unmarked IC50 values for K1 and 3D7 strains of P. falciparum have been determined by HRP II enzyme linked immunosorbent assay (ELISA) as described above. […]
Background: An ELISA detects its analyte on a solid surface through an enzyme-linked reagent.

The test system of test [2] is P. falciparum K1 (CQ-resistant). The test is described as follows: HRP2-based ELISA growth inhibition, K1 strain. The following applies: Plasmodium falciparum, unmarked values: HRP II ELISA, 72 h.
Text: as §1, §2, §3, §4, §5, §6, §7, §8, §9

Test [3] has as its system P. falciparum NF54 (CQ sensitive). The test is described as follows: [3H]-hypoxanthine incorporation assay, NF54 strain. The following applies: Plasmodium falciparum, values marked with asterisk: [3H]-hypoxanthine assay, read-out: IC50 growth inhibition NF54*.
Test [4] relates to P. falciparum K1 (CQ-resistant). In words: [3H]-hypoxanthine incorporation assay, K1 strain. The following applies: Plasmodium falciparum, values marked with asterisk: [3H]-hypoxanthine assay, read-out: IC50 growth inhibition K1 (*).

For orientation: IC50 means the midpoint of a concentration-inhibition curve. Take `O=C(NCc1ccccc1)c1ccccc1OCC(O)CNC12CC3CC(CC(C3)C1)C2` (stereo not drawn) [Compound I-1, 2-[3-(Adamantan-1-ylamino)-2-hydroxy-propoxy]-N-benzyl-benzamide]: the values for the IC50 in test [1] and in test [2] were 2.46 µM and 0.507 µM, respectively.
As to `COc1ccccc1CNC(=O)c1ccccc1OCC(O)CNC12CC3CC(CC(C3)C1)C2` (stereo not drawn) [Compound I-2, 2-[3-(Adamantan-1-ylamino)-2-hydroxy-propoxy]-N-(2-methoxy-benzyl)-benzamide], the IC50 came out at 0.68 µM in test [1] and 0.435 µM in test [2].
For `O=C(NCc1ccccc1)c1ccccc1OCC(O)CNC1C2CC3CC(C2)CC1C3` (stereo not drawn) [Compound I-6, 2-[3-(Adamantan-2-ylamino)-2-hydroxy-propoxy]-N-benzyl-benzamide] the same measures were 0.121 µM and 0.029 µM.
For `COc1ccccc1CNC(=O)c1ccccc1OCC(O)CNC1C2CC3CC(C2)CC1C3` (stereo not drawn) [Compound I-7, 2-[3-(Adamantan-2-ylamino)-2-hydroxy-propoxy]-N-(2-methoxy-benzyl)-benzamide] the same measures were 0.198 µM and 0.099 µM.
On the same counts, the results for `COc1ccc(CNC(=O)c2ccccc2OCC(O)CNC2C3CC4CC(C3)CC2C4)cc1` (stereo not drawn) [Compound I-8, 2-[3-(Adamantan-2-ylamino)-2-hydroxy-propoxy]-N-(4-methoxy-benzyl)-benzamide] are 0.14 µM and 0.013 µM.
With `O=C(NCCc1ccccc1)c1ccccc1OCC(O)CNC1C2CC3CC(C2)CC1C3` (stereo not drawn) [Compound I-9, 2-[3-(Adamantan-2-ylamino)-2-hydroxy-propoxy]-N-phenethyl-benzamide], the IC50 in test [1] is 0.264 µM; in test [2], 0.029 µM.
Regarding `O=C(NCCCc1ccccc1)c1ccccc1OCC(O)CNC1C2CC3CC(C2)CC1C3` (stereo not drawn) [Compound I-11, 2-[3-(Adamantan-2-ylamino)-2-hydroxy-propoxy]-N-(3-phenyl-propyl)-benzamide], the IC50 turned out to be 0.186 µM in test [1] and 0.045 µM in test [2].
Consider `CCCNC(=O)c1ccccc1OCC(O)CNC1C2CC3CC(C2)CC1C3` (stereo not drawn) [Compound I-12, 2-[3-(Adamantan-2-ylamino)-2-hydroxy-propoxy]-N-propyl-benzamide], for which the IC50 in test [1] amounted to 0.611 µM; in test [2] it was 0.092 µM.
For the compound `CN(CC(O)COc1ccccc1C(=O)NCc1ccccc1)C1C2CC3CC(C2)CC1C3` (stereo not drawn) [Compound I-13, 2-[3-(Adamantan-2-yl-methyl-amino)-2-hydroxy-propoxy]-N-benzyl-benzamide], the values for the IC50 in test [1] and in test [2] were 0.457 µM and 0.168 µM, respectively.
For `CN(CC(O)COc1ccccc1C(=O)NCc1ccc(C(F)(F)F)cc1)C1C2CC3CC(C2)CC1C3` (stereo not drawn) [Compound I-16, 2-[3-(Adamantan-2-yl-methyl-amino)-2-hydroxy-propoxy]-N-(4-trifluoromethyl-benzyl)-benzamide] the same measures were 0.131 µM and 0.054 µM.
Turning to `CCCN(CC(O)COc1ccccc1C(=O)NCc1ccccc1)C1C2CC3CC(C2)CC1C3` (stereo not drawn) [Compound I-17, 2-[3-(Adamantan-2-yl-propyl-amino)-2-hydroxy-propoxy]-N-benzyl-benzamide], the IC50 in test [1] was 1.19 µM; in test [2] it was 0.209 µM.
Consider `O=C(Nc1cccc(C(F)(F)F)c1)c1cc(Cl)ccc1OCC(O)CNCC12CC3CC(CC(C3)C1)C2` (stereo not drawn) [Compound I-72, 2-{3-[(Adamantan-1-ylmethyl)-amino]-2-hydroxy-propoxy}-5-chloro-N-(3-trifluoromethyl-phenyl)-benzamide], for which the IC50 in test [3] was 0.0042 µM; in test [4], 0.001 µM.
For `C=CCc1ccccc1NC(=O)c1ccccc1OCC(O)CNCC12CC3CC(CC(C3)C1)C2` (stereo not drawn) [Compound I-73, 2-{3-[(Adamantan-1-ylmethyl)-amino]-2-hydroxy-propoxy}-N-(2-allyl-phenyl)-benzamide] the same measures were 0.073 µM and 0.021 µM.
For `O=C(Nc1ccc(Br)cc1)c1ccccc1OCC(O)CNCC12CC3CC(CC(C3)C1)C2` (stereo not drawn) [Compound I-74, 2-{3-[(Adamantan-1-ylmethyl)-amino]-2-hydroxy-propoxy}-N-(4-bromo-phenyl)-benzamide] the same measures were 0.0048 µM and 0.0012 µM.
For `O=C(Nc1ccc(Br)cc1)c1ccccc1OCC(O)CNC12CC3CC(CC(C3)C1)C2` (stereo not drawn) [Compound I-75, 2-[3-(Adamantan-1-ylamino)-2-hydroxy-propoxy]-N-(4-bromo-phenyl)-benzamide] the same measures were 0.028 µM and 0.0071 µM.
As to `O=C(Nc1ccccc1F)c1ccccc1OCC(O)CN1CCC(c2ccccc2)CC1` (stereo not drawn) [Compound I-77, N-(2-Fluoro-phenyl)-2-[2-hydroxy-3-(4-phenyl-piperidin-1-yl)-propoxy]-benzamide], the IC50 came to 0.256 µM in test [3] and 0.105 µM in test [4].
On the same counts, the results for `O=C(Nc1ccccc1F)c1ccccc1OCC(O)CN1CCC(Cc2ccccc2)CC1` (stereo not drawn) [Compound I-78, 2-[3-(4-Benzyl-piperidin-1-yl)-2-hydroxy-propoxy]-N-(2-fluoro-phenyl)-benzamide] are 0.205 µM and 0.074 µM.
For `O=C(Nc1ccccc1F)c1ccccc1OCC(O)CN1CCN(C(c2ccccc2)c2ccccc2)CC1` (stereo not drawn) [Compound I-79, 2-[3-(4-Benzhydryl-piperazin-1-yl)-2-hydroxy-propoxy]-N-(2-fluoro-phenyl)-benzamide] the same measures were 0.258 µM and 0.083 µM.
On the same counts, the results for `Cc1ccc(NC(=O)c2ccccc2OCC(O)CN2CCC(c3ccccc3)CC2)cc1` (stereo not drawn) [Compound I-80, 2-[2-Hydroxy-3-(4-phenyl-piperidin-1-yl)-propoxy]-N-p-tolyl-benzamide] are 0.047 µM and 0.011 µM.
For the compound `Cc1ccc(NC(=O)c2ccccc2OCC(O)CN2CCC(Cc3ccccc3)CC2)cc1` (stereo not drawn) [Compound I-81, 2-[3-(4-Benzyl-piperidin-1-yl)-2-hydroxy-propoxy]-N-p-tolyl-benzamide], the IC50 turned out to be 0.036 µM in test [3] and 0.0086 µM in test [4].
Turning to `Cc1ccc(NC(=O)c2ccccc2OCC(O)CN2CCN(C(c3ccccc3)c3ccccc3)CC2)cc1` (stereo not drawn) [Compound I-82, 2-[3-(4-Benzhydryl-piperazin-1-yl)-2-hydroxy-propoxy]-N-p-tolyl-benzamide], the IC50 in test [3] came out at 0.024 µM; in test [4], 0.0059 µM.
For `O=C(Nc1cccc(C(F)(F)F)c1)c1cc(Cl)ccc1OCC(O)CN1CCC(c2ccccc2)CC1` (stereo not drawn) [Compound I-83, 5-Chloro-2-[2-hydroxy-3-(4-phenyl-piperidin-1-yl)-propoxy]-N-(3-trifluoromethyl-phenyl)-benzamide] the same measures were 0.016 µM and 0.0035 µM.
For `O=C(Nc1cccc(C(F)(F)F)c1)c1cc(Cl)ccc1OCC(O)CN1CCC(Cc2ccccc2)CC1` (stereo not drawn) [Compound I-84, 2-[3-(4-Benzyl-piperidin-1-yl)-2-hydroxy-propoxy]-5-chloro-N-(3-trifluoromethyl-phenyl)-benzamide] the same measures were 0.0038 µM and 0.001 µM.
On to `O=C(Nc1cccc(C(F)(F)F)c1)c1cc(Cl)ccc1OCC(O)CN1CCN(C(c2ccccc2)c2ccccc2)CC1` (stereo not drawn) [Compound I-85, 2-[3-(4-Benzhydryl-piperazin-1-yl)-2-hydroxy-propoxy]-5-chloro-N-(3-trifluoromethyl-phenyl)-benzamide], for which the IC50 worked out at 0.0057 µM in test [3] and 0.0012 µM in test [4].
